Reference: patent publication US20200397686A1, “Methods of Reducing Burning or Stinging Sensation Attributed to Certain Compositions” (Monell Chemical Senses Center, priority 2018, published 2020)

Tested on: burning sensation in the mouth produced by use of LISTERINE mouthwash
Experiment: Reduction of perceived burning sensation after rinsing with LISTERINE mouthwash with or without sophorolipid (six subjects)
Format: in vivo, human
Conditions: five of six subjects; treated mouthwash (sophorolipid added) vs control mouthwash with no sophorolipid; rinse held in mouth 10-60 seconds before spitting; self-reported
Description: FIG. 1 is a graph that illustrates that a sophorolipid, having an oleic acid fatty acid tail, when added to mouthwash blocks or inhibits the burning sensation taste produced by use of LISTERINE® mouthwash. As discussed in Example 1 below, six subjects were instructed to rinse their mouths with either control (mouthwash with no sophorolipid) or the treated mouthwash (with 10 μM to 100 μM of the sophorolipid). Subjects reported the results as perceived burning sensation. Five of six subjects reported reductions of at least 50% in perceived burn produced by use of the treated mouthwash vs. use of the control.
Six subjects were involved in the study.
A final concentration of […] of the above noted sophorolipid was added to the mouthwash. The mouthwash with no sophorolipid added was the control. The subjects were told to rinse their mouths with either control or the treated mouthwash and hold it in their mouths for 10-60 seconds before spitting. Subjects were told to report the results as perceived burning sensation.
As reported in the graph of FIG. 1, five of six subjects reported reductions of at least 50% in perceived burn produced by use of the […].

sophorolipid
reduction in perceived burn: at least 50%
